# From PubChem BioAssay (NCI)
# Several values for one entry are separate records, joined by “and”; a condition that tells them apart may be missing. Equal values may be shown once.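 Abbreviation: GI50, concentration required for 50% inhibition of growth. TGI marks complete inhibition of growth.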
# How the values were obtained:
# Experiment in all cases: NCI-60 cell line screen, 384-well format
# [1] = system: 786-0 renal
# [2] = system: A498 renal
# [3] = system: A549 NSCLC
# [4] = system: ACHN renal
# [5] = system: BT-549 breast
# [6] = system: CAKI-1 renal
# [7] = system: CCRF-CEM leukemia
# [8] = system: COLO 205 colon
# [9] = system: DU-145 prostate
# [10] = system: EKVX NSCLC
# [11] = system: HCC-2998 colon
# [12] = system: HL-60(TB) leukemia
# [13] = system: HOP-62 NSCLC
# [14] = system: HOP-92 NSCLC
# [15] = system: HS 578T breast
# [16] = system: HT29 colon
# [17] = system: K-562 leukemia
# [18] = system: KM12 colon
# [19] = system: LOX IMVI melanoma
# [20] = system: M14 melanoma
# [21] = system: MALME-3M melanoma
# [22] = system: MDA-MB-231 breast
# [23] = system: MDA-MB-435 melanoma
# [24] = system: MDA-MB-468 breast
# [25] = system: MOLT-4 leukemia
# [26] = system: NCI-H226 lung
# [27] = system: NCI-H23 lung
# [28] = system: NCI-H322M lung
# [29] = system: NCI-H522 lung
# [30] = system: NCI/ADR-RES ovarian
# [31] = system: OVCAR-3 ovarian
# [32] = system: OVCAR-4 ovarian
# [33] = system: OVCAR-5 ovarian
# [34] = system: OVCAR-8 ovarian
# [35] = system: PC-3 prostate
# [36] = system: RPMI-8226 leukemia
# [37] = system: RXF 393 renal
# [38] = system: SF-268 CNS
# [39] = system: SF-295 CNS
# [40] = system: SF-539 CNS
# [41] = system: SK-MEL-2 melanoma
# [42] = system: SK-MEL-28 melanoma
# [43] = system: SK-OV-3 ovarian
# [44] = system: SN12C renal
# [45] = system: SNB-19 CNS
# [46] = system: SNB-75 CNS
# [47] = system: SR leukemia
# [48] = system: T-47D breast
# [49] = system: U251 glioblastoma
# [50] = system: UACC-257 melanoma
# [51] = system: UACC-62 melanoma
# [52] = system: HCT-116 colon
# [53] = system: HCT-15 colon
# [54] = system: IGROV1 ovarian
# [55] = system: NCI-H460 NSCLC
# [56] = system: SK-MEL-5 melanoma
# [57] = system: SW-620 colon
# [58] = system: TK-10 renal
smiles,measurement,setting,value
CC(=O)c1c(C)c2cnc(Nc3ccc(N4CCNCC4)cn3)nc2n(C2CCCC2)c1=O,TGI,[1],10.3 µM and > 100 µM
same,TGI,[2],13.1 µM and > 100 µM
same,TGI,[3],10.8 µM and > 100 µM
same,GI50,[4],0.976 µM and 3.18 µM
same,TGI,[5],14.3 µM and > 100 µM
same,GI50,[6],0.686 µM and 0.698 µM
same,GI50,[7],0.191 µM
same,TGI,[7],5.34 µM
same,TGI,[8],11 µM and > 100 µM
same,TGI,[9],14.6 µM and > 100 µM
same,TGI,[10],15.4 µM and > 100 µM
same,TGI,[11],10.9 µM and > 100 µM
same,GI50,[12],0.0811 µM and 0.0379 µM
same,TGI,[13],13.7 µM and > 100 µM
same,TGI,[14],15 µM and > 100 µM
same,GI50,[15],10.1 µM and > 100 µM
same,TGI,[15],17.2 µM and > 100 µM
same,TGI,[16],12.1 µM and > 100 µM
same,GI50,[17],2.64 µM
same,TGI,[17],9.38 µM
same,GI50,[18],0.713 µM and 0.388 µM
same,GI50,[19],25.4 µM
same,TGI,[19],> 100 µM
same,TGI,[20],11 µM and > 100 µM
same,TGI,[21],11.2 µM and > 100 µM
same,TGI,[22],14.4 µM and > 100 µM
same,TGI,[23],11.6 µM and > 100 µM
same,TGI,[24],10.1 µM and > 100 µM
same,GI50,[25],0.121 µM and 0.123 µM
same,TGI,[25],5.1 µM and 4.65 µM
same,TGI,[26],13.1 µM and > 100 µM
same,TGI,[27],15.1 µM and > 100 µM
same,TGI,[28],14.5 µM and > 100 µM
same,TGI,[29],15 µM and > 100 µM
same,TGI,[30],17.1 µM and > 100 µM
same,TGI,[31],16.4 µM and > 100 µM
same,GI50,[32],11.2 µM and > 100 µM
same,TGI,[32],18.6 µM and > 100 µM
same,TGI,[33],12 µM and > 100 µM
same,TGI,[34],16.4 µM and > 100 µM
same,TGI,[35],15.4 µM and > 100 µM
same,GI50,[36],0.422 µM
same,TGI,[36],> 100 µM
same,GI50,[37],11.4 µM and > 100 µM
same,TGI,[37],18.7 µM and > 100 µM
same,TGI,[38],13 µM and > 100 µM
same,TGI,[39],13.7 µM and > 100 µM
same,TGI,[40],16.7 µM and > 100 µM
same,GI50,[41],9.24 µM
same,TGI,[41],16.2 µM
same,TGI,[42],13 µM and > 100 µM
same,TGI,[43],14.8 µM and > 100 µM
same,TGI,[44],13.3 µM and > 100 µM
same,TGI,[45],13.9 µM and > 100 µM
same,TGI,[46],14.2 µM and > 100 µM
same,GI50,[47],0.428 µM and 0.198 µM
same,TGI,[47],3.83 µM and 0.634 µM
same,TGI,[48],14.8 µM and > 100 µM
same,TGI,[49],12.2 µM and > 100 µM
same,TGI,[50],13.3 µM and > 100 µM
same,TGI,[51],11.4 µM and > 100 µM
COc1cnccc1Nc1nc(-c2nn(Cc3c(F)cc(OCCO)cc3F)c3ccccc23)ncc1OC,GI50,[1],1.53 µM
same,TGI,[1],2.89 µM
same,GI50,[2],1.19 µM
same,TGI,[2],2.43 µM
same,GI50,[3],1.54 µM
same,TGI,[3],2.92 µM
same,GI50,[5],1.44 µM
same,TGI,[5],2.8 µM
same,GI50,[6],1.9 µM
same,TGI,[6],8.3 µM
same,GI50,[7],0.395 µM
same,TGI,[7],1.74 µM
same,GI50,[8],2.27 µM
same,TGI,[8],> 33.3 µM
same,GI50,[9],1.73 µM
same,TGI,[9],3.44 µM
same,GI50,[10],1.54 µM
same,TGI,[10],3.16 µM
same,GI50,[11],1.76 µM
same,TGI,[11],4.47 µM
same,GI50,[52],1.62 µM
same,TGI,[52],3.6 µM
same,GI50,[53],1.2 µM
same,TGI,[53],2.51 µM
same,GI50,[12],0.838 µM
same,TGI,[12],2.16 µM
same,GI50,[13],0.783 µM
same,TGI,[13],2.06 µM
same,GI50,[14],0.902 µM
same,TGI,[14],2.19 µM
same,GI50,[15],1.75 µM
same,TGI,[15],3.89 µM
same,GI50,[16],1.85 µM
same,TGI,[16],5.48 µM
same,GI50,[54],1.94 µM
same,TGI,[54],4.47 µM
same,GI50,[17],1.21 µM
same,TGI,[17],2.56 µM
same,GI50,[18],1.27 µM
same,TGI,[18],3.13 µM
same,GI50,[19],1.25 µM
same,TGI,[19],2.72 µM
same,GI50,[20],1.4 µM
same,TGI,[20],2.86 µM
same,GI50,[21],1.77 µM
same,TGI,[21],3.2 µM
same,GI50,[22],1.41 µM
same,TGI,[22],3.22 µM
same,GI50,[23],1.73 µM
same,TGI,[23],3.36 µM
same,GI50,[24],0.927 µM
same,TGI,[24],2.13 µM
same,GI50,[25],0.126 µM
same,TGI,[25],0.548 µM
same,GI50,[27],1.63 µM
same,TGI,[27],3.15 µM
same,GI50,[55],1.06 µM
same,TGI,[55],2.28 µM
same,GI50,[29],0.768 µM
same,TGI,[29],2.03 µM
same,GI50,[30],1.87 µM
same,TGI,[30],3.9 µM
same,GI50,[31],1.61 µM
same,TGI,[31],3.1 µM
same,GI50,[32],1.64 µM
same,TGI,[32],3.03 µM
same,GI50,[33],2.86 µM
same,TGI,[33],7.17 µM
same,GI50,[35],1.87 µM
same,TGI,[35],3.36 µM
same,GI50,[36],0.841 µM
same,TGI,[36],2.09 µM
same,GI50,[38],0.845 µM
same,TGI,[38],2.72 µM
same,GI50,[40],1.45 µM
same,TGI,[40],2.76 µM
same,GI50,[41],1.54 µM
same,TGI,[41],2.88 µM
same,GI50,[42],1.72 µM
same,TGI,[42],3.12 µM
same,GI50,[56],1.51 µM
same,TGI,[56],2.85 µM
same,GI50,[43],1.75 µM
same,TGI,[43],3.93 µM
same,GI50,[44],1.31 µM
same,TGI,[44],2.65 µM
same,GI50,[45],1.6 µM
same,TGI,[45],3.08 µM
same,GI50,[47],0.261 µM
same,TGI,[47],1.25 µM
same,GI50,[57],1.47 µM
same,TGI,[57],2.84 µM
same,GI50,[58],2.04 µM
same,TGI,[58],4.14 µM
same,GI50,[49],1.44 µM
same,TGI,[49],2.78 µM
same,GI50,[51],1.5 µM
same,TGI,[51],2.86 µM
